From US5594012A, “Amino acid derivatives and anti-active oxygen agents” (Ajinomoto Co., Inc., priority 1992, dated 1997)
Where a name gives a salt, the structure may show the parent alone.

Tests used:
[1] = tested on: lipid peroxidation in murine brain homogenate; assay: Inhibitory effects on metal ion-induced lipid peroxidation (murine brain homogenate); format: biochemical, murine (C57 black mouse); details: 1 mM test compound; 100 μM ammonium iron (II) sulphate; 37° C., 30 minutes; pH 7.2 to 7.8
Protocol: Test for Inhibitory Effects on Metal Ion-induced Lipid Peroxidation
(§1) The test was carried out according to the method described in Method in Enzymol., Vol. 52, page 302, 1978. A C57 black mouse was killed by cervical dislocation, and the whole brain extracted from the dissected head was washed with 20 mM phosphate buffer (hereinafter referred to as "PBS-2"). Then, the brain was added with PBS-2 in an amount of 19 times its wet weight, and the mixture was disrupted and homogenized with a homogenizer "Polytron" (manufactured by Kinematica). The thus prepared 5% solution of the murine brain homogenate in PBS-2 was diluted 1:5 with fresh PBS-2. To 800 μl of the resulting 1% solution of the murine brain homogenate in PBS-2 (protein content: 0.8 to 1.0 mg/ml) were successively added 100 μl of a PBS-2 solution of each of the test compounds shown in Table 7 below and 100 μl of an aqueous solution of ammonium iron (II) sulphate. The final concentration of the test compounds and ammonium iron (II) sulphate were adjusted to be 1 mM and 100 μM, respectively. If test compounds were not soluble in PBS-2 alone, an aqueous sodium hydroxide solution or DMSO was added. The pH of the solution was adjusted to 7.2 to 7.8.
The solution after heated at 37° C. for 30 minutes was added with 2.0 ml of an aqueous solution of thiobarbituric acid/trichloroacetic acid/hydrochloric acid, and the mixture was heated in a boiling water bath for 15 minutes. After ice-cooling, the solution was extracted with 1.0 ml of 1-butanol to prepare a sample for determining the peroxide lipid in the same way as described in Test Example 1.
(§2) [formula] A1 : Absorbance when a test compound was added. A2 : Absorbance when a test compound was not added.
A3 : Absorbance when a test compound was not added and heating at 37° C. for 30 minutes was not carried out.

[2] = tested on: hydroxyl radical; assay: Inhibitory effects on hydroxyl radical formation (1) (xanthine/xanthine oxidase, deoxyribose); format: biochemical; details: 360 μM test compound; 36 μM ammonium iron (III) sulphate; xanthine oxidase 0.7 unit/ml; 37° C., 15 minutes; pH 7.4 to 7.8
Protocol: Test for Inhibitory Effects on Hydroxyl Radical Formation (1)
The test was carried out in accordance with the method described in FEBS Letters, Vol. 128, page 347, 1981. Namely, to 1.1 ml of a solution of 54 mM sodium chloride in 9 mM phosphate buffer (hereinafter referred to as "PBS-I") were successively added 140 μl of a solution of each of the test compounds shown in Table 6 below in PBS-1, […] of a 1 mM solution of ammonium iron (III) sulphate in hydrochloric acid, 140 μl of a solution of xanthine (manufactured by Tokyo Kasei Co.) in PBS-1, 14 μl a solution of deoxyribose (Sigma) in PBS-1 and xanthine oxidase (Sigma). The final concentrations of the test compounds, ammonium iron (III) sulphate, xanthine, deoxyribose and xanthine oxidase were adjusted to be 360 μM, 36 μM, 70 μM, 700 μM and 0.7 unit/ml, respectively. If test compounds were not soluble in PBS-1 alone, aqueous sodium hydroxide solution or DMSO was added. The pH of the solution was adjusted to 7.4 to 7.8.
. The percent inhibition of the hydroxyl radical was calculated from the following equation (2) and the results are shown in Table 6. [formula] F1 : Intensity of fluorescence when a test compound was added. F2 : Intensity of fluorescence when a test compound was added but deoxyribose was not added.
F3 : Intensity of fluorescence when a test compound was not added.
F4 : Intensity of fluorescence when neither test compound nor deoxyribose was added.

[3] = tested on: lipid peroxidation in homogenate of murine swiss 3T3 cells; assay: Inhibitory effects on UV-induced lipid peroxidation (homogenate of murine swiss 3T3 cells); format: biochemical; details: 1 mM test compound; UVB 0.4 mW/cm^2, 90 min; pH 7.2 to 7.8; TBA, 535 nm
Protocol: Test for Inhibitory Effects on UV-induced Lipid Peroxidation
The test was carried out on the basis of the methods described in Biochim. Biophys. […] Namely, 12 μl of an aqueous sodium hydroxide solution of each of the test compounds shown in Table 5 below was added to 1.2 ml of a homogenate of murine swiss 3T3 cells (i.e. a kind of murine skin cells) prepared by a conventional method in 20 mM phosphate buffer (protein content: 1.5 to 1.8 mg/ml). The final concentration of the test compounds was adjusted to be 1 mM and the pH of the solution was adjusted to 7.2 to 7.8. If test compounds were not soluble in an aqueous sodium hydroxide solution, they were dissolved in N,N-dimethyl sulfoxide (DMSO).
This solution (1.1 ml) was irradiated with UV rays (0.4 mW/cm^2, 90 min.) using a UVB lamp "EB-280C/J" (manufactured by Spectronics). To an aliquot (1.0 ml) of this solution were successively added 0.2 ml of an aqueous solution of sodium dodecyl sulfate and 1.0 ml of an aqueous solution of thiobarbituric acid/trichloroacetic acid/hydrochloric acid, and the mixed solution was heated in a boiling water bath for 15 minutes. After ice-cooling, the solution was extracted with 1.0 ml of 1-butanol to prepare a sample for determining peroxide lipid as absorbance at a wavelength of 535 nm using a spectrophotometer "Model 320" (manufactured by Hitachi).
as §2
A3 : Absorbance when a test compound was not added and UV rays were not irradiated.

[4] = tested on: hydroxyl radical; assay: Inhibitory effects on hydroxyl radical formation (2) (iron (II)/hydrogen peroxide, DMPO, ESR); format: biochemical; details: 306 μM test compound; 306 μM iron (II) sulphate; 75 mM DMPO; 306 μM hydrogen peroxide; ESR within 40 seconds
Protocol: Test for Inhibitory Effects on Hydroxyl Radical Formation (2)
To 75 μl of a solution of each of the test compounds shown in Table 9 below in 0.1M phosphate buffer (hereinafter referred to as "PBS-3") were successively added 75 μl of an aqueous solution of iron (II) sulphate, 20 μl of an aqueous solution of 5,5-dimethyl-1-pyrroline-N-oxide "DMPO" (manufactured by Dojin Chemical) and 75 μl of an aqueous solution of hydrogen peroxide. […] If test compounds were not soluble in PBS-3 alone, an aqueous sodium hydroxide solution or N,N-dimethyl formamide was added.
This solution was subjected to determination for the hydroxy radical immediately (within 40 seconds), using an electron spin resonance (ESR) meter "JES-FR80S" (manufactured by Nippon Denshi).
[formula] E1 : Signal magnitude when a test compound was added. E2 : Signal magnitude when a test compound was not added.

[5] = tested on: lipid peroxidation in murine brain homogenate; assay: Inhibitory effects on lipid peroxidation (murine brain homogenate); format: biochemical, murine (C57 black mouse); details: 30 μM test compound; no added iron; 37° C., 60 minutes; pH 7.2 to 7.8
Protocol: as §1
Test for Inhibitory Effects on Lipid Peroxidation
To 900 μl of a 5% solution of the murine brain homogenate in PBS-2 prepared in the same way as described in Test Example 3 was added 100 μl of a PBS-2 solution of each of the test compounds shown in Table 8 below. The final concentration of the test compounds was adjusted to be 30 μM. If test compounds were not soluble in PBS-2 alone, an aqueous solution of sodium hydroxide or DMSO was added. The pH of the solution was adjusted to 7.2 to 7.8.
The solution after heated at 37° C. for 60 minutes was added with 1.0 ml of an aqeuous solution of thiobarbituric acid/trichloroacetic acid/hydrochloric acid, and the mixture was heated in a boiling water bath for 15 minutes. After ice-cooling, the solution was extracted with 2.0 ml of 1-butanol to prepare a sample for determining the lipid peroxide in the same way as described in Test Example 1. […] [formula] A4 : Absorbance when a test compound was added. A5 : Absorbance when a test compound was not added.
A6 : Abosrbance when a test compound was not added and heating at 37° C. for […] was not carried out.

[6] = UV absorptive activities; format: physicochemical; details: 100 μM in ethanol (water or DMSO added if not soluble); for Maximum molar extinction coefficient: UVA and UVB regions
Protocol: Test for UV Absorptive Activities
A solution of each of the test compounds shown in Table 10 below in ethanol was prepared for the final concentration to be 100 μM. If test compounds were not soluble in ethanol alone, water or DMSO was added.
The absorption spectrum of each sample was determined using a spectrophotometer "Model 320" (manufactured by Hitachi).

% Inhibition of hydroxyl radical [2] [%]	Wavelength (nm) of maximum absorption [6] [nm]	Maximum molar extinction coefficient [6]	Compound	% Inhibition of metal ion-induced lipid peroxidation [1] [%]	% Inhibition of UV-induced lipid peroxidation [3] [%]	% Inhibition of hydroxy radicals [4] [%]	% Inhibition of lipid peroxidation [5] [%]
33	–	–	O=C(O)C(Cc1ccc(O)cc1)NCc1ccccc1O (stereo not drawn) [Synthesis Example 4]	26	60	27	–
–	–	–	COC(=O)CCC(N=Cc1c(O)ccc2ccccc12)C(=O)O (stereo not drawn) [Synthesis Example 48]	85	–	54	–
–	–	–	O=C(O)CCC(N=Cc1c(O)ccc2ccccc12)C(=O)O (stereo not drawn) [Synthesis Example 47]	90	–	32	–
16	–	–	O=C(O)C(Cc1ccc(O)cc1)N=Cc1c(O)ccc2ccccc12 (stereo not drawn) [Synthesis Example 31]	90	–	–	–
–	–	–	N=C(N)NCCCC(N=Cc1c(O)ccc2ccccc12)C(=O)O (stereo not drawn) [Synthesis Example 53]	96	–	68	–
–	–	–	CC(C)C(N=Cc1c(O)ccc2ccccc12)C(=O)O (stereo not drawn) [Synthesis Example 30]	43	–	25	–
–	336	3,000	Cc1ncc(CO)c(C=NC(CO)C(=O)O)c1O (stereo not drawn) [Synthesis Example 69]	23	–	19	15
–	290	5,300	Cc1ncc(CO)c(CNC(Cc2c[nH]cn2)C(=O)O)c1O (stereo not drawn) [Synthesis Example 22]	–	–	51	91
–	–	–	O=C(O)C(CCO)N=Cc1c(O)ccc2ccccc12 (stereo not drawn) [Synthesis Example 29]	78	–	60	–
42	290	3,500	Cc1ncc(CO)c(CNC(CO)C(=O)O)c1O (stereo not drawn) [Synthesis Example 18]	26	–	43	44
–	309	7,000	O=C(O)[C@H](Cc1c[nH]cn1)N=Cc1c(O)ccc2ccccc12 [Synthesis Example 27, N-(2-hydroxy-1-naphthal)-L-histidine]	87	–	71	98
29	–	–	O=C(O)C(CO)NCc1ccccc1O (stereo not drawn) [Synthesis Example 2]	41	59	44	26
–	–	–	O=C(O)C(Cc1c[nH]cn1)N=Cc1ccccc1O (stereo not drawn) [Synthesis Example 60]	34	–	33	–
15	291	4,300	Cc1ncc(CO)c(C=N[C@@H](Cc2c[nH]cn2)C(=O)O)c1O [Synthesis Example 68, N-pyridoxilidene-L-histidine-sodium salt]	15	–	10	–
15	–	–	O=C(O)C(CCO)NCc1ccccc1O (stereo not drawn) [Synthesis Example 3]	21	65	45	–
60	–	–	Cc1ncc(CO)c(C=NC(Cc2ccc(O)cc2)C(=O)O)c1O (stereo not drawn) [Synthesis Example 70]	27	–	28	–
–	–	–	Cc1ncc(CO)c(CNCC(=O)O)c1O [Synthesis Example 16]	–	–	56	89

Compound	% Inhibition of hydroxyl radical [2] [%]	Wavelength (nm) of maximum absorption [6] [nm]	Maximum molar extinction coefficient [6]	% Inhibition of metal ion-induced lipid peroxidation [1] [%]	% Inhibition of UV-induced lipid peroxidation [3] [%]	% Inhibition of hydroxy radicals [4] [%]	% Inhibition of lipid peroxidation [5] [%]
O=C(O)CC(O)(CC(=O)O)C(=O)O [Citric acid, reference compound]	-33	–	–	-15	19	–	-13
O=C(O)[C@H](Cc1c[nH]cn1)NCc1ccccc1O [Synthesis Example 1, N-(2-hydroxybenzyl)-L-histidine]	29	–	–	26	40	27	53
